Measured values as given in US20090192204A1, “N-(2-THIAZOLYL)-AMIDE DERIVATIVES AS GSK-3 INHIBITORS” (NOSCIRA, S.A., priority 2006, published 2009).

Key:
[1] = biological target: T1, Recombinant human glycogen synthase kinase 3β (Homo sapiens, UniProt P49841); test: GSK-3β inhibition (radiometric kinase assay, GS-2 peptide, 33P-ATP); format: biochemical; details: 0.5 h, remaining GSK-3 activity; for remaining activity at 25 µM: compound 25 μM; for remaining activity at 50 µM: compound 50 μM
T1 construct: purchased Upstate 14-306
Procedure: This assay is based on the protocol detailed by Upstate Cat. 14-306, making some slight modifications.
Recombinant human glycogen synthase kinase 3β is assayed in MOPS 11 mM pH7.4, EDTA 0.2 mM, EGTA 1.25 mM, MgCl2 26.25 mM and sodium orthovanadate 0.25 mM in the presence of 62.5 μM of Phospho-Glycogen Synthase Peptide-2 (GS-2) (TOCRIS, Cat. 1352), 0.5 μCi γ-^33P-ATP and unlabelled ATP (Sigma, A-9187) at a final concentration of 12.5 μM. After incubation for 30 minutes at 30° C., aliquots are spotted onto P81 phosphocellulose papers. Filters are washed four times for at least 10 minutes each with 1% phosphoric acid and counted with scintillation cocktail in a scintillation counter (PerkinElmer, Microbeta 1450). The activity of GSK-3 is tested at concentrations of 25 and 50 μM, in the presence of the compounds synthesized according to examples 1 to 7 and in the presence of another 6 compounds of formula (I).The results obtained are indicated in Table I (see below), in the form of percentage of GSK-3 activity.

SH-SY5Y cells = test: Cell survival by LDH release in SH-SY5Y cells; format: cell-based
Procedure: In addition to tau phosphorylation assays, quantification of cell death due to potential toxicity of compounds 1, 4, 5, 7, 8, 9, 10 and 11 described above is made by measuring LDH release (Roche, Cat 1 644 793). For the quantitative determination of cell survival, aliquots of the cell lysate are incubated with an equal volume of reaction mixture at room temperature for 20-30 min. The measure of absorbance is made in a microtiter plate reader with 490-492 nm filter (Cultek, Anthos 2010).
For compounds 4 and 5, the cell survival was measured at 24 hours treatment (see Table 2), and for compounds 1, 7, 8, 9, 10 and 11 was measured at 18 hours treatment (see Table 3), in SH-SY5Y cells. It is generally considered that a compound is considered toxic if less than 80% of the cells survive after treatment with a compound.

[2] = test system: phosphorylated human Tau [pS396]; test: Inhibition of tau phosphorylation in SHSY5Y cells (Tau [pS396] sandwich ELISA); format: cell-based; parameters: key: “NEG” means no tau phosphorylation inhibition was detected at the referred concentration of compound (I); “POS” means that at the referred concentration tau phosphorylation inhibition was detected; details: 18 h
Procedure: Human neuroblastoma SHSY5Y cells were seeded in the presence of Minimum Essential Medium/Nutrient Mixture F-12. One day later, cells are treated with samples for 18 h at 37° C. After treatment, cultures are washed with phosphate-buffered saline and lysed for 30 min at 4° C. in extraction buffer (10 mM Tris-HCl, pH 7.4, 100 mM NaCl, 1 mM EDTA, 2 mM Na3VO4, 1% Triton X-100, 10% glycerol, 0.1% SDS, 0.5% Sodium deoxycholate, 1 mM PMSF and a protease inhibitor cocktail (Roche, Cat 1 697 498)).
The quantitative determination of phosphorylated human Tau is made taking aliquots of the cell lysate and using a phosphorylation-specific antibody against Tau [pS396] in a sandwich ELISA (Biosource, Cat KHB7031). Tau phosphorylation is estimated by measuring the absorbance at 450 nm in a microtiter plate reader (Cultek, Anthos 2010).
The effect of the synthesized compounds according to examples 1-7 and that of another 6 compounds of formula (I) is determined at different final concentrations, namely 50, 100 and 200 μM. Not all the compounds of formula (I) were tested at all the concentrations. The results are indicated in Table 1 (see below) as “NEG” and “POS”, respectively meaning “negative” and “positive”; “NEG” means no tau phosphorylation inhibition was detected at the referred concentration of compound (I); “POS” means that at the referred concentration tau phosphorylation inhibition was detected.

T1 sequence (P49841 whole entry): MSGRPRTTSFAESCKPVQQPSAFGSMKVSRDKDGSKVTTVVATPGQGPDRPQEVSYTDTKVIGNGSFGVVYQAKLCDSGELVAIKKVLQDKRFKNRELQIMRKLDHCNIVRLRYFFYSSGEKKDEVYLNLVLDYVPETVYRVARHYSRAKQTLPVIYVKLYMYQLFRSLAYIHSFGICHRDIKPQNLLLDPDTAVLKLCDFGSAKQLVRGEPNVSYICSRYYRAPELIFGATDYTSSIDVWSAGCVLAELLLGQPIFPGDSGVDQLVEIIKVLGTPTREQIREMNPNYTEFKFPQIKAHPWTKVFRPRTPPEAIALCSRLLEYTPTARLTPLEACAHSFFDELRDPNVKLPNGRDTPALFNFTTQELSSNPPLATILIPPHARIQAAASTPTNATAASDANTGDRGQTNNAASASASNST

Row | Compound | remaining activity at 25 µM [1] | remaining activity at 50 µM [1] | % of cell viability (SH-SY5Y cells; 50 μM, 18 hours treatment) | % of cell viability (SH-SY5Y cells; 100 μM, 18 hours treatment) | Tau phosphorylation inhibition in cells ([2]; 50 μM) | Tau phosphorylation inhibition in cells ([2]; 100 μM) | Tau phosphorylation inhibition in cells ([2]; 200 μM) | % of cell viability (SH-SY5Y cells; 10 μM, 24 hours treatment) | % of cell viability (SH-SY5Y cells; 25 μM, 24 hours treatment)
1 | O=C(CCCc1c[nH]c2ccccc12)Nc1ncc([N+](=O)[O-])s1 [Compound 1] | 37.4% | 18.9% | 103.2 ± 17% | 101.0 ± 17% | NEG | NEG | NEG | – | –
2 | O=C(CCCc1c[nH]c2ccccc12)Nc1nccs1 [Compound 2] | 59.6% | 39% | – | – | – | – | – | – | –
3 | O=C(Nc1ncc([N+](=O)[O-])s1)c1c[nH]c2ccccc12 [Compound 3] | 73.8% | 53.4% | – | – | – | – | – | – | –
4 | O=C(Cc1c[nH]c2ccccc12)Nc1ncc([N+](=O)[O-])s1 [Compound 4, 2-(Indol-3-yl)-N-(5-nitro-thiazol-2-yl)-acetamide] | 6.29% | 8.51% | – | – | NEG | POS | POS | 91.7 ± 1.9% | 90 ± 3.7%
5 | O=C(CCc1c[nH]c2ccccc12)Nc1ncc([N+](=O)[O-])s1 [Compound 5] | 19.1% | 12.4% | – | – | POS | POS | POS | 87.8 ± 3.8% | 86.1 ± 18.4%
6 | O=C(Cc1c[nH]c2ccccc12)Nc1ncc(Cl)s1 [Compound 6] | 29.4% | 14.6% | – | – | – | – | – | – | –
7 | COc1ccc2[nH]cc(CC(=O)Nc3ncc([N+](=O)[O-])s3)c2c1 [Compound 7, 2-(5-Methoxy-indol-3-yl)-N-(5-nitro-thiazol-2-yl)-acetamide] | 43.9% | 32.2% | 99.8 ± 8.6% | 92.9 ± 11.1% | NEG | POS | – | – | –
8 | Cn1cc(CC(=O)Nc2ncc([N+](=O)[O-])s2)c2ccccc21 [Compound 8, 2-(1-Methyl-indol-3-yl)-N-(5-nitro-thiazol-2-yl)-acetamide] | 17.8% | 9.27% | 103 ± 7.7% | 85.5 ± 6.5% | POS | POS | – | – | –
9 | Cc1[nH]c2ccccc2c1CC(=O)Nc1ncc([N+](=O)[O-])s1 [Compound 9, 2-(2-Methyl-indol-3-yl)-N-(5-nitro-thiazol-2-yl)-acetamide] | 7.96% | 2.61% | 91.6 ± 5.9% | 90.8 ± 5.5% | POS | POS | – | – | –
10 | COc1ccc2[nH]c(C(=O)Nc3ncc([N+](=O)[O-])s3)cc2c1 [Compound 10, 5-Methoxy-indole-2-carboxylic Acid (5-nitro-thiazol-2-yl)-amide] | 18.9% | 11% | 84.7 ± 2.7% | 90.6 ± 7.2% | POS | POS | – | – | –
11 | O=C(Nc1ncc([N+](=O)[O-])s1)c1n[nH]c2ccccc12 [Compound 11, 1H-Indazole-3-carboxylic Acid (5-nitro-thiazol-2-yl)-amide] | 34.8% | 18.2% | 95.3 ± 3.3% | 93.9 ± 5.6% | NEG | NEG | – | – | –
12 | Cc1cnc(NC(=O)Cc2c[nH]c3ccccc23)s1 [Compound 12] | 49.1% | 37.1% | – | – | – | – | – | – | –
13 | O=C(Cc1c[nH]c2ccccc12)Nc1nccs1 [Compound 13] | 70.9% | 42.7% | – | – | – | – | – | – | –
